In patent publication US7626042B2, “O-substituted hydroxyaryl derivatives” (Institute of Medicinal Molecular Design, Inc., priority 2002, dated 2009):
Where a name gives a salt, the structure may show the parent alone.

System: NF-κB activation
Test: Inhibitory activity against NF-κB activation, luciferase reporter assay under TNF-α stimulation
Assay type: cell-based, human
Settings: HepG2 cells, TNF-α 40 ng/ml, 4 hours; for inhibition at 1 µg/mL / inhibition at 10 µg/mL: Homo sapiens, read-out: Inhibitory Ratio of NF-κ B Activation(%)
Procedure: Inhibitory activity against NF-κB activation was measured by referring to the method of Hill et al. (Cell, (USA), in 1993, Vol. 73, No. 2, p. 395-406). Using a transfection reagent(Effectene; QIAGEN), the human hepatoma cell strain HepG2 was transfected with a plasmid (pNFκ Luc Reporter Plasmid; STRATAGENE) integrated with an oligonucleotide having five tandem copies of NF-κB binding sequences(TGGGGACTTTCCGC) on a upstream region of firefly luciferase gene (Luc) according to the QIAGEN's protocol, and the cells were incubated for 6 to 24 hours. Then the cells were cultured for 4 hours after the addition of TNF-α (40 ng/ml) in the presence of a test compound, and intracellular luciferase activity was measured by using PicaGene LT (TOYO INK MFG Co., Ltd.) and a chemical luminescence measurement apparatus(SPECTRAFluor Plus; TECAN). The inhibitory ratio was measured as a ratio relative to a value of the luciferase activity in the absence of the test compound.

SMILES | Inhibitory Ratio of NF-κ B Activation(%) (Drug Concentration 1 μg/mL) | Inhibitory Ratio of NF-κ B Activation(%) (Drug Concentration 10 μg/mL) | inhibition at 1 µg/mL (Drug Concentration 1 μg/mL) [%] | inhibition at 10 µg/mL (Drug Concentration 10 μg/mL) [%]
O=C(Nc1cc(C(F)(F)F)cc(C(F)(F)F)c1)c1cc(Cl)ccc1OCOC(=O)N1CCC(C(=O)O)CC1 [Compound 104] | 48.4 | 58.8 | – | –
O=C(Nc1cc(C(F)(F)F)cc(C(F)(F)F)c1)c1cc(Cl)ccc1OC(=O)N1CCC(C(=O)O)CC1 [Compound 74] | 56.2 | 58.1 | – | –
CCOC(=O)C1CCN(C(=O)OCOc2ccc(Cl)cc2C(=O)Nc2cc(C(F)(F)F)cc(C(F)(F)F)c2)CC1 [Compound 103, 5-Chloro-2-({[4-(ethoxycarbonyl)piperidin-1-yl]carbonyl}oxy)methoxy-N-[3,5-bis(trifluoromethyl)phenyl]benzamide] | – | – | 40.4 | 45.9
CC(C)[C@H](NC(=O)OC(C)(C)C)C(=O)Oc1ccc(Cl)cc1C(=O)Nc1cc(C(F)(F)F)cc(C(F)(F)F)c1 [Compound 24, 2-[N-(tert-butoxycarbonyl)-L-valyl]oxy-5-chloro-N-[3,5-bis(trifluoromethyl)phenyl]-benzamide] | – | – | 96.3 | 96.8
CC(C)(C)OC(=O)[C@H](Cc1ccccc1)NC(=O)CNC(=O)Oc1ccc(Cl)cc1C(=O)Nc1cc(C(F)(F)F)cc(C(F)(F)F)c1 [Compound 61, (S)-2-[N-({N-[1-(tert-butoxycarbonyl)-2-phenylethyl]carbamoyl}methyl)carbamoyl]oxy-5-chloro-N-[3,5-bis(trifluoromethyl)phenyl]benzamide] | – | – | 98.6 | 99.2
COC(=O)CC1(C(=O)OC)Oc2ccc(Cl)cc2C(=O)N1c1cc(C(F)(F)F)cc(C(F)(F)F)c1 (stereo not shown) [Compound 117] | – | – | 34.8 | 56.7
O=C(Cc1ccc2c(c1)OCO2)Oc1ccc(Cl)cc1C(=O)Nc1cc(C(F)(F)F)cc(C(F)(F)F)c1 [Compound 9] | 94.6 | 97.3 | – | –
O=C(Nc1cc(C(F)(F)F)cc(C(F)(F)F)c1)c1cc(C(F)(F)F)ccc1OC(=O)N1CCOCC1 [Compound 79, 2-(Morpholinocarbonyl)oxy-5-trifluoromethyl-N-[3,5-bis(trifluoromethyl)phenyl]-benzamide] | – | – | 88.1 | 70.2
CC(C)C[C@H](NC(=O)[C@@H](N)CCCCN)C(=O)Oc1ccc(Cl)cc1C(=O)Nc1cc(C(F)(F)F)cc(C(F)(F)F)c1.Cl.Cl [Compound 40] | 96.2 | 97.5 | – | –
CC(C)S(=O)(=O)Oc1ccc(Cl)cc1C(=O)Nc1cc(C(F)(F)F)cc(C(F)(F)F)c1 [Compound 46] | 89.5 | 96.3 | – | –
COc1ccccc1NC(=O)c1cc2cc(Br)ccc2cc1OP(=O)(O)O [Compound 53] | 21.5 | 92.0 | – | –
CCCCCCCCCC(=O)Oc1ccc(Cl)cc1C(=O)Nc1cc(C(F)(F)F)cc(C(F)(F)F)c1 [Compound 3] | 96.1 | 98.4 | – | –
CC(C)(C)C(=O)Oc1ccc(Cl)cc1C(=O)Nc1cc(C(F)(F)F)cc(C(F)(F)F)c1 [Compound 1, 5-Chloro-2-pivaloyloxy-N-[3,5-bis(trifluoromethyl)phenyl]benzamide] | – | – | 94.9 | 95.8
Cl.N[C@@H](Cc1ccccc1)C(=O)Oc1ccc(Cl)cc1C(=O)Nc1cc(C(F)(F)F)cc(C(F)(F)F)c1 [Compound 29] | 90.2 | 97.5 | – | –
O=C(Nc1cc(C(F)(F)F)cc(C(F)(F)F)c1)c1cc(Cl)ccc1OCCO [Compound 107] | 47.4 | 52.1 | – | –
CC(C)[C@H](N)C(=O)Oc1ccc(Cl)cc1C(=O)Nc1cc(C(F)(F)F)cc(C(F)(F)F)c1.Cl [Compound 25] | 93.4 | 97.2 | – | –
CC(C)C[C@H](N)C(=O)N[C@@H](Cc1ccccc1)C(=O)Oc1ccc(Cl)cc1C(=O)Nc1cc(C(F)(F)F)cc(C(F)(F)F)c1 [Compound 41, 5-Chloro-2-[N-(L-leucyl)-L-phenylalanyl]oxy-N-[3,5-bis(trifluoromethyl)phenyl]-benzamide hydrochloride] | – | – | 91.4 | 99.1
CCOC(=O)CNC(=O)Oc1ccc(Cl)cc1C(=O)Nc1cc(C(F)(F)F)cc(C(F)(F)F)c1 [Compound 56, 5-chloro-2-{N-[(ethoxycarbonyl)methyl]carbamoyl}oxy-N-[3,5-bis(trifluoromethyl)-phenyl]benzamide] | – | – | 96.8 | 98.9
O=C(Nc1cc(C(F)(F)F)ccc1C(F)(F)F)c1ccccc1OC(=O)N1CCOCC1 [Compound 132] | 32.3 | – | – | –

SMILES | Inhibitory Ratio of NF-κ B Activation(%) (Drug Concentration 1 μg/mL) | Inhibitory Ratio of NF-κ B Activation(%) (Drug Concentration 10 μg/mL) | inhibition at 1 µg/mL (Drug Concentration 1 μg/mL) [%] | inhibition at 10 µg/mL (Drug Concentration 10 μg/mL) [%]
CN1CCN(C(=O)Oc2ccc(Cl)cc2C(=O)Nc2cc(C(F)(F)F)cc(C(F)(F)F)c2)CC1 [Compound 72] | 39.4 | 35.2 | – | –
O=C(Nc1cc(C(F)(F)F)cc(C(F)(F)F)c1)c1cc(Cl)ccc1OP(=O)([O-])O.[Na+] [Compound 52] | 76.3 | 96.5 | – | –
O=C(Nc1cc(C(F)(F)F)ccc1C(F)(F)F)c1cc(Br)cc(Br)c1OC(=O)N1CCOCC1 [Compound 130, 3,5-Dibromo-2-(morpholinocarbonyl)oxy-N-[2,5-bis(trifluoromethyl)phenyl]-benzamide] | – | – | 18.9 | –
CN(C(=O)Oc1ccc(Cl)cc1C(=O)Nc1cc(C(F)(F)F)cc(C(F)(F)F)c1)c1ccccc1 [Compound 69] | 29.7 | 18.7 | – | –
O=C(COc1ccc(Cl)cc1C(=O)Nc1cc(C(F)(F)F)cc(C(F)(F)F)c1)OCc1ccccc1 [Compound 110, 2-[(benzyloxy)carbonyl]methoxy-5-chloro-N-[3,5-bis(trifluoromethyl)phenyl]-benzamide] | – | – | 38.5 | 39.2
O=C(O)CN(CC(=O)O)C(=O)Oc1ccc(Cl)cc1C(=O)Nc1cc(C(F)(F)F)cc(C(F)(F)F)c1 [Compound 76] | 98.9 | 98.2 | – | –
O=C(Nc1cc(C(F)(F)F)cc(C(F)(F)F)c1)c1cc(Cl)ccc1OCN1C(=O)c2ccccc2C1=O [Compound 111] | 94.3 | 96.0 | – | –
CC(C)(C)c1ccc(OP(=O)([O-])O)c(C(=O)Nc2cc(C(F)(F)F)cc(C(F)(F)F)c2)c1.[Na+] [Compound 139] | 64.3 | – | – | –
O=C(Nc1cc(C(F)(F)F)cc(C(F)(F)F)c1)c1cc(Cl)ccc1OC(=O)N1CCOCC1 [Compound 71] | 70.6 | 78.0 | – | –
O=C(Nc1cc(C(F)(F)F)cc(C(F)(F)F)c1)c1cc(Cl)ccc1OCOC(=O)N1CCOCC1 [Compound 102, 5-Chloro-2-[(morpholinocarbonyl)oxy]methoxy-N-[3,5-bis(trifluoromethyl)phenyl]-benzamide] | – | – | 39.1 | 70
COC(=O)[C@H](Cc1ccccc1)NC(=O)Oc1ccc(Cl)cc1C(=O)Nc1cc(C(F)(F)F)cc(C(F)(F)F)c1 [Compound 59] | 96.2 | 97.8 | – | –
CC(C)(C)C(=O)c1sc(NC(=O)c2cc(Cl)ccc2OP(=O)([O-])O)nc1C(C)(C)C.[Na+] [Compound 128] | >99.9 | >99.9 | – | –
Cl.Cl.NCCCC[C@H](N)C(=O)Oc1ccc(Cl)cc1C(=O)Nc1cc(C(F)(F)F)cc(C(F)(F)F)c1 [Compound 34] | 51.9 | 99.5 | – | –
N[C@@H](CCC(=O)O)C(=O)Oc1ccc(Cl)cc1C(=O)Nc1cc(C(F)(F)F)cc(C(F)(F)F)c1 [Compound 32] | 98.0 | 98.8 | – | –
CC(C)(C)OC(=O)NCCCC[C@H](NC(=O)OC(C)(C)C)C(=O)Oc1ccc(Cl)cc1C(=O)Nc1cc(C(F)(F)F)cc(C(F)(F)F)c1 [Compound 33, 5-chloro-2-[N^α,N^ε-di(tert-butoxycarbonyl)-L-lysyl]oxy-N-[3,5-bis(trifluoromethyl)phenyl]benzamide] | – | – | 96.6 | 98.6
COc1ccc(C(F)(F)F)cc1NC(=O)c1cc(Br)ccc1OC(=O)N1CCOCC1 [Compound 86, 5-Bromo-N-[2-methoxy-5-(trifluoromethyl)phenyl]-2-[(morpholinocarbonyl)oxy]-benzamide] | – | – | 23.4 | 11.9
CCN(CC)C(=O)Oc1ccc(Cl)cc1C(=O)Nc1cc(C(F)(F)F)cc(C(F)(F)F)c1 [Compound 68] | 53.0 | 47.4 | – | –
CC(C)(C)c1cc(NC(=O)c2cc(Br)ccc2OP(=O)([O-])O)cc(C(C)(C)C)c1.[Na+] [Compound 145] | 93.1 | – | – | –
